Source: patent US8632914B2, “Triazolium and imidazolium salts and uses thereof” (University Health Network, priority 2008, dated 2014)

Experiments:
P. berghei parasites = assay: In vivo evaluation: parasitemia in mice infected with P. berghei; set-up: species or system P. berghei in female Balb/C mice
Protocol: (§1) Groups of 5 female Balb/C mice were infected with 10^6 P. berghei parasites i.p. and the parasitemia was estimated daily by examining a Giemsa-stained blood film. Once parasites were observed mice were infused once daily with saline alone (control groups) or with 18 ug/day of QT72, 18 ug/day of QT69, 0.24 ug/day of QT98, 60 ug/day of QT109, 9 ug/day of QT119, 7.5 ug/day of QT124 or 450 ug/day of chloroquine (CQ) for three days, as indicated by the arrows in FIG. 1. Average parasitemias are shown in FIG. 1 with standard error of the mean for each experimental group indicated by bars. The separate graphs in FIG. 1 indicate the results of two separate experiments.

P. falciparum = assay: Anti-Plasmodium activity: viability of P. falciparum cultures (pLDH enzyme assay); format: cell-based; conditions: strain line ItG, 72 hr incubation, pLDH assay, mean of four determinations ± standard error, read-out: IC50 (μM) P. falciparum
Protocol: P. falciparum cultures were grown in O+ blood obtained by venipuncture of volunteers. Cultures of the laboratory line ItG were maintained by the method of Trager and Jensen (Trager, W.; Jensen, J. Science 1976, 193, 673) using RPM, 1640 supplemented with 10% human serum (a kind gift obtained under ethical consent from the Chemo Day Care department of the Princess Margaret Hospital, Toronto, Canada) and 50 μM hypoxanthine (RPMI-A). The effects of the test compounds on the viability of P. falciparum cultures were determined using a Lactate Dehydrogenase (LDH) enzyme assay specific to the enzyme found in Plasmodium falciparum (pLDH) (Prudhomme, J. G.; Sherman, I. W. J Immunol Methods 1999, 229(1-2), 169; Makler, M. T.; Ries, J. M.; Williams, J. A.; Bancroft, J. E.; Piper, R. C.; Gibbins, B. L.; Hinrichs, D. J. Am J Trop Med Hyg 1993, 48(6), 739). Briefly, compounds to be tested were dissolved in DMSO afford a solution having a concentration of 10 mg/mL. Two-fold serial dilutions were then produced in 50 μL of RPMI-A in a 96 well plate and then 50 μL of parasite culture (2% hematocrit, 2% parasitemia) were added to each well and the plates were then incubated at 37° C. in 95% N2, 3% CO2, and 2% O2 for 72 hr. The contents of the wells were then re-suspended using a multi-channel pipettor and a 15 μL sample was removed from each well and was added to 100 μL of pLDH enzyme assay mixture (Prudhomme, J. G.; Sherman, I. W. J Immunol Methods 1999, 229(1-2), 169). After 1 hr the absorbance of the wells at 650 nm was determined using a ThermoMax microplate reader (Molecular Devices, Sunnyvale, Calif.). The IC50 values of individual compounds were determined using a non-linear regression analysis of the data^19 using the computer program SigmaPlot (Jandel Scientific) and are reported in Table 1. The IC50 values represent the mean±standard error calculated from four independent determinations. To verify if the poor viability of the cultures was related to inhibited merozoite invasion, samples were taken from treated wells and the presence of extracellular merozoites was confirmed by microscopy.

CHO cells = assay: Viability of CHO cells (MTT); format: cell-based; conditions: Cricetulus griseus; CHO cells; 48 hrs; MTT; mean of four determinations ± standard error; read-out: IC50 (μM) CHO cells
Protocol: CHO cells (ATCC, Manassas, Va.) were grown in RPMI-1640 supplemented with 10% fetal calf serum (Sigma, St. Louis, Mo.), 25 mM HEPES and gentimicin (RPMI-10). Cells were seeded in 96 well plates and grown to 50% confluency in 100 μL of RPMI-10 per well prior to the addition of either DMSO alone, or a 10 mg/mL solution of a test compound of the disclosure in DMSO. Compound gradients were prepared by adding 90 μL of RPMI-10 mixed with 10 μL of compound solution to the first well in the series, mixing, transferring 100 μL to the next well, and repeating until the next-to-last well was reached. After 48 hrs, the viability of the cells was determined by discarding the media in the wells and adding 100 μL of 10 mg/mL of 3-[4,5-dimethylthiazol-2-yl]-2,5-diphenyltetrazolium bromide (MTT, Sigma, St. Louis, Mo.) in RPMI-10, incubating the plates for a further hour, and then removing the media and adding 100 μL of DMSO and reading the absorbance at 650 nm (Campling, B. G.; Pym, J.; Galbraith, P. R.; Cole, S. P. Leuk Res 1988, 12(10), 823). The IC50 values of individual compounds were determined using a non-linear regression analysis of the dose-response curve using the computer program SigmaPlot (Jandel Scientific) and are reported in Table 1.

[1] = system: P. falciparum ItG cultures; assay: Effect on synchronized ItG P. falciparum cultures (Giemsa stained blood films); format: cell-based; conditions: 20 uM; cultures synchronized at mature stage; 24 hrs incubation
Protocol: The culture was allowed to incubate for 24 hrs before samples were withdrawn and used to produce Giemsa stained blood films.

[2] = set-up: species or system mice; conditions: mouse, in vivo
Protocol: as §1

| Compound | IC50 (P. falciparum) [µM] | parasitemia vs saline control (P. berghei parasites; 450 ug/day infused once daily for three days, second experiment, all days following day 6 (P<0.02)) | IC50 (CHO cells) [µM] | parasitemia vs saline control (P. berghei parasites; 18 ug/day infused once daily for three days, day 6 (P<0.10), day 7 (P<0.01), day 8 (P<0.01)) | parasite forms in Giemsa stained blood films [1] | parasitemia vs saline control (P. berghei parasites; 9 ug/day infused once daily for three days, second experiment, day 14 (P<0.10), day 15 (P<0.03)) | adverse effects on the health of the mice [2] | parasitemia vs saline control (P. berghei parasites; 0.24 ug/day infused once daily for three days, day 7 (P<0.05)) |
| --- | --- | --- | --- | --- | --- | --- | --- | --- |
| CCN(CC)CCCC(C)Nc1ccnc2cc(Cl)ccc12 (stereo not drawn) [chloroquine, reference compound] |  | significantly lower |  |  |  |  |  |  |
| c1ccc(Cn2cc[n+](Cc3ccc4ccccc4c3)c2)cc1 [QT69, 1-Benzyl-3-(naphthalen-2-yl-methyl)imidazolium bromide] | 0.9 ± 0.2 |  | 108 ± 6 | significantly lower | parasite forms were seen associated with the outside of the red cells |  |  |  |
| C[n+]1cnn(CCCCCCCCCCCCn2c[n+](C)cn2)c1 [QT124, 1,12-Bis(4-methyl-1H-1,2,4-triazolium-1-yl)dodecane diiodide] | 0.00016 ± 5e-05 |  | 52 ± 9 |  |  |  | no adverse effects on the health of the mice were observed |  |

The next lines start with results.

| IC50 (P. falciparum) [µM] | Compound | parasitemia vs saline control (P. berghei parasites; 450 ug/day infused once daily for three days, second experiment, all days following day 6 (P<0.02)) | IC50 (CHO cells) [µM] | parasitemia vs saline control (P. berghei parasites; 18 ug/day infused once daily for three days, day 6 (P<0.10), day 7 (P<0.01), day 8 (P<0.01)) | parasite forms in Giemsa stained blood films [1] | parasitemia vs saline control (P. berghei parasites; 9 ug/day infused once daily for three days, second experiment, day 14 (P<0.10), day 15 (P<0.03)) | adverse effects on the health of the mice [2] | parasitemia vs saline control (P. berghei parasites; 0.24 ug/day infused once daily for three days, day 7 (P<0.05)) |
| --- | --- | --- | --- | --- | --- | --- | --- | --- |
| 0.0008 ± 0.0001 | CCC[n+]1ccn(CCCCCCCCCCCCn2cc[n+](CCC)c2)c1 [QT119, 1,12-Bis(3-propylimidazolium-1-yl)dodecane diiodide] |  | 78 ± 14 |  |  | significantly lower | no adverse effects on the health of the mice were observed |  |
| 0.007 ± 0.003 | C[n+]1ccn(CCCCCCCCCCCCCn2cc[n+](C)c2)c1 [QT109, 1,13-Bis-(3-methylimidazolium-1-yl)tridecane diiodide] |  | 51 ± 11 |  |  |  | no adverse effects on the health of the mice were observed |  |
| 0.009 ± 0.001 | C[n+]1ccn(-c2ccc(-c3ccc(-n4cc[n+](C)c4)cc3)cc2)c1 [QT98, 4,4′-Bis-(3-methyl-1H-imidazolium-1-yl)biphenyl diiodide] |  | 9 ± 2 |  |  |  |  | significantly lower |
